Values after ≈ are worked out from the molar mass of the structure shown.
System: Liver microsomes
Test: Inhibition of lipid peroxidation in rat liver microsomes
Format: functional, Microsome

Row | Compound | IC50 [µg/mL]
1 | COC1=C(c2ccccc2)C(=O)C(OC)=C(c2ccccc2)C1=O [BETULINAN A] | 0.46 (≈ 1.44 µM)
2 | VITAMIN E | 1.68
3 | COC1=C(c2ccccc2)C(=O)C2=C(C1=O)c1ccccc1CO2 [BETULINAN B] | 2.88 (≈ 9.05 µM)
